{"source": "patent US20180200392A1", "about": "“DETECTION AND TREATMENT OF RENAL CELL CARCINOMA WITH A SLC6A3 LIGAND LINKED TO A LABEL, CYTOTOXIC OR IMMUNO[…]” (Akuru Pharma AB, priority 2015, published 2018)", "key": {"[1]": {"details": "in vivo; cited from earlier work"}, "SLC6A3": {"molecular_target": "SLC6A3 (Homo sapiens, UniProt Q01959)", "sequence (Q01959 whole entry)": "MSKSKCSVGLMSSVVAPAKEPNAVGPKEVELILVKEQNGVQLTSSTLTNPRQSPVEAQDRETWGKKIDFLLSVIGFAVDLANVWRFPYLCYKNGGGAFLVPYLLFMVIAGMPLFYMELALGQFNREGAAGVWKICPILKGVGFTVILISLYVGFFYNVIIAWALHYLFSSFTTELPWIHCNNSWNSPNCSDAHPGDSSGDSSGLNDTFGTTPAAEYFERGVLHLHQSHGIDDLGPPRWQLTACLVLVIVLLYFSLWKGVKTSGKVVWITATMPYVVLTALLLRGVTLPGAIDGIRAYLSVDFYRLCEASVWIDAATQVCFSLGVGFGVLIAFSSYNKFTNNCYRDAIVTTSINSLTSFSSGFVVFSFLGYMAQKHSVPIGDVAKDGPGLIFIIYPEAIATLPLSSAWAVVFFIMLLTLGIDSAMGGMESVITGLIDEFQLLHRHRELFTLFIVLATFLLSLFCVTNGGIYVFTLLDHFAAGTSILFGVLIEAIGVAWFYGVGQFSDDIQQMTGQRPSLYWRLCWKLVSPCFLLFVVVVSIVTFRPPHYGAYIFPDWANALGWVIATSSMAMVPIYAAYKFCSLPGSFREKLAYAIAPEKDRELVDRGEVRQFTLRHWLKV", "assay": "[3H]dopamine uptake in ccRCC cell lines in the presence of specific SLC6A3 inhibitors", "details": "GBR12935 30 nM (SKRC10); GBR12909 10-90 nM (KMRC3, SNU-349); 1 h pre-incubation, 5 min uptake; FIG. 8 A-C", "description": "Data presented as mean±SEM.\n(§1) Uptake experiments were performed in cells cultivated in 12-well plates at 37° C. The cells of interest were seeded at 80.000 cells/well 48 h before the uptake experiment was performed. The wells were washed in 1×PBS, followed by a wash in 1 ml of assay buffer (Hanks Balanced Salt Solution (HBSS) with CaCl2 and MgCl2, without phenol red supplemented with 10 mM HEPES, pH 7.4) at 37° C. and then incubated with 0.5 ml of buffer for 5 min. […] All uptake experiments were stopped by removing the uptake buffer and adding 1 ml of ice-cold assay buffer to each well and immediately aspirating the buffer and washing three additional times with 1 ml of ice-cold buffer. The incorporated radioactivity was extracted by solubilising the cells with 1% Triton-X for 1 h at R.T, 6 ml of scintillation fluid was thereafter added. The amount of radioactivity was measured with a Tri-carb 2810TR liquid scintillation analyzer (Perkin Elmer)."}, "KMRC-3 cells": {"test_system": "KMRC-3 cells", "assay": "SPECT/CT imaging of mice with orthotopically injected KMRC-3 ccRCC cells", "assay_type": "in vivo", "details": "5.36 MBq injected 13 weeks after cell injection, imaged after 1 h and 35 min, FIG. 4", "experimental": "FIG. 4: SPECT/CT images of a mouse injected with 5.36 MBq (^123I-Ioflupan).\nccRCC cell line KMRC-3 cells were injected orthotopically in mice, 2*10^6 cells in 40 ul PBS. After 13 weeks the mice were injected with 5.36 MBq ^123I-Ioflupan and analysed by SPECT/CT imaging after 1 h and 35 min."}, "ccRCC cell lines": {"test_system": "ccRCC cell lines", "details": "7 nM [3H]dopamine; uptake correlates with SLC6A3 expression level", "description": "as §1"}}, "data": [{"smiles": "Fc1ccc(C(OCCC2CCN(Cc3ccc(I)cc3)CC2)c2ccc(F)cc2)cc1", "note": "[FMIP, 4-(2-(bis(4-fluorophenyl)methoxy)ethyl)-1-(4-iodobenzyl)piperidine]", "values": [{"measurement": "passage of the blood-brain barrier", "setting": "[1]", "value": "does not pass the blood-brain barrier"}]}, {"smiles": "c1ccc(CCCN2CCN(CCOC(c3ccccc3)c3ccccc3)CC2)cc1", "note": "[GBR12935]", "values": [{"measurement": "amount of [3H]-dopamine taken up by ccRCC cells in presence of inhibitor", "setting": "SLC6A3", "value": "clearly diminish"}]}, {"smiles": "COC(=O)[C@@H]1C2CCC(C[C@@H]1c1ccc(I)cc1)N2CCCF", "note": "(stereo partly drawn) [Ioflupane (^123I), [^123I] N-ω-fluoropropyl-2β-carbomethoxy-3β-(4-iodophenyl)nortropane]", "values": [{"measurement": "uptake in contralateral kidney lacking injected tumor cells (SPECT/CT)", "setting": "KMRC-3 cells", "value": "no enhanced uptake"}, {"measurement": "uptake in kidney orthotopically injected with KMRC-3 cells (SPECT/CT)", "setting": "KMRC-3 cells", "value": "clearly display enhanced uptake"}, {"measurement": "uptake in contralateral kidney lacking injected tumor cells (SPECT/CT)", "setting": "KMRC-3 cells; listed as 123I-Ioflupan", "value": "no signal could be detected"}, {"measurement": "uptake in kidney orthotopically injected with KMRC-3 cells (SPECT/CT)", "setting": "KMRC-3 cells; listed as 123I-Ioflupan", "value": "uptake"}]}, {"smiles": "NCCc1ccc(O)c(O)c1", "note": "[[H^3]dopamine]", "values": [{"measurement": "uptake of [3H]dopamine by primary ccRCC cells compared to primary normal cortex cell", "setting": "primary ccRCC cells; 7 nM [3H]dopamine, 1-20 min, 37° C., FIG. 3 and FIG. 7A", "value": "enhanced uptake"}, {"measurement": "uptake of [3H]dopamine by ccRCC cell lines", "setting": "ccRCC cell lines", "value": "take up"}]}, {"smiles": "NCCc1ccc(O)c(O)c1", "note": "[unlabelled dopamine, dopamine]", "values": [{"measurement": "[3H]dopamine uptake of primary ccRCC tumor cells in response to competitive unlabelled dopamine", "setting": "primary ccRCC cells; 7 nM [3H]dopamine with 2 uM or 20 uM unlabelled dopamine for 5 min, FIG. 7A-B", "value": "decreased uptake"}]}]}
